# Data: PubChem BioAssay (NCI)
#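 Assay format: 96-well plates, 48-hour exposure. At the GI50, growth is halved. TGI: total growth inhibition.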
# Tested on: SK-OV-3 ovarian
# Assay: NCI anticancer screen, dose series, 48 h
Compound,GI50 [µM],TGI [µM]
Nc1ccc(-c2nc3ccc(Cc4ccc5nc(-c6ccc(N)cc6)[nH]c5c4)cc3[nH]2)cc1,18.9,40.6
O=S(=O)(Nc1cc(Sc2cccc3cccnc23)c(O)c2ccccc12)c1ccccc1,4.3,17.9
CN(C)C(=O)[C@H](O)[C@H](Cc1ccccc1)NC(=O)c1cc2cc(Cl)ccc2[nH]1,29.1,97.8
CC(C)(C[C@H]1CN(S(=O)(=O)c2cccc(C(F)(F)F)c2)c2cc(-c3cc(F)cc(OC(F)F)c3)ccc2O1)C(=O)O,13.2,27.4
Cc1ccc(-c2nc3ccc(Cl)cc3c(=O)n2N2C(=O)CSC2c2ccccc2Cl)cc1 (configuration not stated),2.89,9.9
C#Cc1c(I)n(C2OC(CO[Si](C)(C)C(C)(C)C)C3OC(C)(C)OC32)c(=O)[nH]c1=O (configuration not stated),33.2,> 100
CCSc1nc(SCC)c2cn[nH]c2n1,39,> 100
ClCC[N+]12CC[N+](CCCl)(CC1)C2,–,> 100
COc1cc(C(=O)c2cc(C)c3[nH]c4ccc(C)cc4c3c2C)cc(OC)c1OC,< 0.0307,> 100
C=C1C(=O)OC2/C=C(\COC(C)=O)CCC(OC(C)=O)C3=CC(OC3=O)C12 (configuration not stated),–,28.4
Cc1ccc2[nH]c(O)c(N=Nc3ccc(S(N)(=O)=O)cc3)c2c1,19.9,> 25
C/C(N=NC(=S)N(C)C)=C1\C=CC=CN1O,–,> 100
C=C1CCC(CC[C@@H]2CC[C@]3(OC2)O[C@@]2(O)CC[C@]3(C)OC2(C)C)C(C)(C)[C@H]1C/C=C1/C(=O)OC[C@@H]1O (some centres not stated),–,16.6
C[C@]12CC[C@@H]3c4cc(OCC(F)(F)F)c(O)cc4/C(=N/O)C[C@H]3[C@@H]1CC[C@@H]2O,–,0.439
Cn1c(=O)c(Cc2ccccc2F)cc2cnc(NC3CCOCC3)nc21,> 25,> 25
COc1cc(/C=C/c2ccc(OC)c(OC)c2)cc(OC)c1,–,> 100
CC1(C)[C@@H](OC(N)=O)[C@H]2O[C@H]2[C@]2(C=O)[C@H]3CC[C@]4(C)[C@@H](c5ccc(=O)oc5)[C@@H](Cl)C[C@]4(O)C3=CC[C@@H]12,0.007,0.0203
CCCCON(OC(=O)c1ccc2ccc3cccc4ccc1c2c34)C(C)=O,40.1,> 100
Cc1[nH]c2ccccc2c(=O)c1CC=C(Cl)Cl,24.2,55.6
Clc1ccc(C=Nc2ccc3c(c2)Cc2ccccc2-3)c(Cl)c1,–,> 100
COc1ccc(/C=C/c2cc(OC)cc(=O)o2)cc1,–,> 100
O=C(/C=C\c1ccc(NCc2ccc(C(=O)O)cc2)cc1)CCl,15.1,28.8
COc1cccc(C#Cc2ccccc2C#CCCCCO)c1,17.2,32.5
COc1cc2[nH]c(C(=O)c3cc(OC)c(OC)c(OC)c3)c(N)c2cc1C#CC1CC1,3.42,> 100
COc1ccc(/C=C/C(=O)C(CC2CCC2)C(=O)/C=C/c2ccc(OC)c(OC)c2)cc1OC,2.69,6.69
CCn1c(-c2ccc(OC(C)=O)cc2)c(C)c2cc(OC(C)=O)ccc21,–,74.5
O=c1cccc(C#CC#CC2=CCCCC2)o1,10.5,27.9
O=C1Nc2ccc(F)cc2/C1=C/c1ccc[nH]1,> 25,> 25

# Tested on: SK-MEL-5 melanoma
# Assay: NCI anticancer screen, dose series, 48 h
Compound,GI50 [µM],TGI [µM]
Nc1ccc(-c2nc3ccc(Cc4ccc5nc(-c6ccc(N)cc6)[nH]c5c4)cc3[nH]2)cc1,5.22,34.1
O=S(=O)(Nc1cc(Sc2cccc3cccnc23)c(O)c2ccccc12)c1ccccc1,1.36,3.05
CN(C)C(=O)[C@H](O)[C@H](Cc1ccccc1)NC(=O)c1cc2cc(Cl)ccc2[nH]1,15.6,30.6
CC(C)(C[C@H]1CN(S(=O)(=O)c2cccc(C(F)(F)F)c2)c2cc(-c3cc(F)cc(OC(F)F)c3)ccc2O1)C(=O)O,3.56,14.9
Cc1ccc(-c2nc3ccc(Cl)cc3c(=O)n2N2C(=O)CSC2c2ccccc2Cl)cc1 (configuration not stated),20,> 100
C#Cc1c(I)n(C2OC(CO[Si](C)(C)C(C)(C)C)C3OC(C)(C)OC32)c(=O)[nH]c1=O (configuration not stated),13.1,27.1
CCSc1nc(SCC)c2cn[nH]c2n1,18,41.8
ClCC[N+]12CC[N+](CCCl)(CC1)C2,–,> 100
COc1cc(C(=O)c2cc(C)c3[nH]c4ccc(C)cc4c3c2C)cc(OC)c1OC,< 0.01,< 0.0146
C=C1C(=O)OC2/C=C(\COC(C)=O)CCC(OC(C)=O)C3=CC(OC3=O)C12 (configuration not stated),–,26.7
Cc1ccc2[nH]c(O)c(N=Nc3ccc(S(N)(=O)=O)cc3)c2c1,11,> 25
C/C(N=NC(=S)N(C)C)=C1\C=CC=CN1O,–,> 100
C=C1CCC(CC[C@@H]2CC[C@]3(OC2)O[C@@]2(O)CC[C@]3(C)OC2(C)C)C(C)(C)[C@H]1C/C=C1/C(=O)OC[C@@H]1O (some centres not stated),–,1.72
C[C@]12CC[C@@H]3c4cc(OCC(F)(F)F)c(O)cc4/C(=N/O)C[C@H]3[C@@H]1CC[C@@H]2O,–,12.5
Cn1c(=O)c(Cc2ccccc2F)cc2cnc(NC3CCOCC3)nc21,> 25,> 25
COc1cc(/C=C/c2ccc(OC)c(OC)c2)cc(OC)c1,–,41.1
CC1(C)[C@@H](OC(N)=O)[C@H]2O[C@H]2[C@]2(C=O)[C@H]3CC[C@]4(C)[C@@H](c5ccc(=O)oc5)[C@@H](Cl)C[C@]4(O)C3=CC[C@@H]12,0.00459,0.00887
CCCCON(OC(=O)c1ccc2ccc3cccc4ccc1c2c34)C(C)=O,16.9,32.5
Cc1[nH]c2ccccc2c(=O)c1CC=C(Cl)Cl,27.5,> 100
Clc1ccc(C=Nc2ccc3c(c2)Cc2ccccc2-3)c(Cl)c1,–,> 100
COc1ccc(/C=C/c2cc(OC)cc(=O)o2)cc1,–,> 100
O=C(/C=C\c1ccc(NCc2ccc(C(=O)O)cc2)cc1)CCl,17.2,34.5
O=C1CSC(c2ccc(Cl)cc2Cl)N1c1ccc(F)cc1 (configuration not stated),24.6,39.8
COc1cccc(C#Cc2ccccc2C#CCCCCO)c1,19.1,33.8
COc1cc2[nH]c(C(=O)c3cc(OC)c(OC)c(OC)c3)c(N)c2cc1C#CC1CC1,1.33,22.4
COc1ccc(/C=C/C(=O)C(CC2CCC2)C(=O)/C=C/c2ccc(OC)c(OC)c2)cc1OC,1.77,3.25
CCn1c(-c2ccc(OC(C)=O)cc2)c(C)c2cc(OC(C)=O)ccc21,–,27.1
O=c1cccc(C#CC#CC2=CCCCC2)o1,3.3,8.89
O=C1Nc2ccc(F)cc2/C1=C/c1ccc[nH]1,> 25,> 25

# Tested on: COLO 205 colon
# Assay: NCI anticancer screen, dose series, 48 h
Compound,GI50 [µM],TGI [µM]
Nc1ccc(-c2nc3ccc(Cc4ccc5nc(-c6ccc(N)cc6)[nH]c5c4)cc3[nH]2)cc1,1.65,3.2
O=S(=O)(Nc1cc(Sc2cccc3cccnc23)c(O)c2ccccc12)c1ccccc1,1.71,3.7
CN(C)C(=O)[C@H](O)[C@H](Cc1ccccc1)NC(=O)c1cc2cc(Cl)ccc2[nH]1,16.1,30.3
CC(C)(C[C@H]1CN(S(=O)(=O)c2cccc(C(F)(F)F)c2)c2cc(-c3cc(F)cc(OC(F)F)c3)ccc2O1)C(=O)O,11.3,32.7
Cc1ccc(-c2nc3ccc(Cl)cc3c(=O)n2N2C(=O)CSC2c2ccccc2Cl)cc1 (configuration not stated),9,> 100
C#Cc1c(I)n(C2OC(CO[Si](C)(C)C(C)(C)C)C3OC(C)(C)OC32)c(=O)[nH]c1=O (configuration not stated),2.24,4.8
CCSc1nc(SCC)c2cn[nH]c2n1,34.4,> 100
ClCC[N+]12CC[N+](CCCl)(CC1)C2,–,> 100
COc1cc(C(=O)c2cc(C)c3[nH]c4ccc(C)cc4c3c2C)cc(OC)c1OC,< 0.01,0.0369
C=C1C(=O)OC2/C=C(\COC(C)=O)CCC(OC(C)=O)C3=CC(OC3=O)C12 (configuration not stated),–,6.54
Cc1ccc2[nH]c(O)c(N=Nc3ccc(S(N)(=O)=O)cc3)c2c1,> 24.2,> 25
C/C(N=NC(=S)N(C)C)=C1\C=CC=CN1O,–,> 100
